pKi: −log10 of the molar value.
Key:
[1] = biological target: T1, ORF1110 Galf-ase (ORF1110 protein) (Streptomyces sp. JHA19, UniProt A0A0K2SRV3); assay: inhibition of pNP-β-D-Galf hydrolysis, pNP absorbance at […] nm; type: biochemical
T1 construct: recombinant from E. coli BL21(DE3)CodonPlus, pET50b, N-terminal 2xHis6 and Nus tags (cut by HRV3C for TLC only); ORF 786 aa; GH2 with C-terminal AbfB domain
T1 sequence (A0A0K2SRV3 46-786): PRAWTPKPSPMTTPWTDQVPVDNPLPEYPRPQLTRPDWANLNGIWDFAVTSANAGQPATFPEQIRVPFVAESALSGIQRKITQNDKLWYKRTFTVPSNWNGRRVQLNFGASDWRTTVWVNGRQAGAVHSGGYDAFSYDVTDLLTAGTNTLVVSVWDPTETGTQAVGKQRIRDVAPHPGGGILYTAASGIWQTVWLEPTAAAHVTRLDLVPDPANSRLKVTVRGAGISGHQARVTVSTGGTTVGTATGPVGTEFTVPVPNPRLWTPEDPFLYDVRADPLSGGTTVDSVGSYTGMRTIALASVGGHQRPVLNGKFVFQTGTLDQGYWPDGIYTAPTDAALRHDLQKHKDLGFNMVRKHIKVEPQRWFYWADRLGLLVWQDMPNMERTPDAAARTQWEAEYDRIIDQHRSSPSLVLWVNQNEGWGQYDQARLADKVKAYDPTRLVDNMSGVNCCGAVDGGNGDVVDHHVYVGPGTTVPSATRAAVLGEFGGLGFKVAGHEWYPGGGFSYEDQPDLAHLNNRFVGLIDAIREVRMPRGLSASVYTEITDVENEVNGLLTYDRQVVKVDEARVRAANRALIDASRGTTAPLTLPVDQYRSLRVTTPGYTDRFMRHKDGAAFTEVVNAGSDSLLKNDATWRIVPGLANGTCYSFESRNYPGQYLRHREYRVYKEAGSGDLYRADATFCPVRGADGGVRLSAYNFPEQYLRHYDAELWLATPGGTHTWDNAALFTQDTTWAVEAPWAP

[2] = tested on: O=[N+]([O-])c1ccc(O[C@@H]2O[C@@H]([C@H](O)CO)[C@H](O)[C@H]2O)cc1; assay: purified protein; settings: 37 °C, acetate buffer pH 4.5 (general assay; pH of the kinetics not stated)

pKi [1]	Compound	Km [2] [mM]
1.29	O=C1O[C@@H](CO)[C@H](O)[C@H]1O [L-arabino-1,4-lactone]	–
–	ORF1110 Galf-ase (ORF1110 protein) (Streptomyces sp. JHA19)	4.4
